This is an account of results in patent publication US20230406839A1, “Bifunctional Compounds And Methods Of Using The Same” (The General Hospital Corporation, priority 2020, published 2023).

Assay [1] concerns HeLa cells. The assay can be described thus: Azide metabolic labeling of HeLa cells, detected with DBCO-FAM by flow cytometry. It counts as cell-based. The following applies: AzNAM 125 μM for 20 hours, versus cells receiving no azide-modified sugar (FIG. 2). How it is done:
In separate trials, HeLa cells were added to wells of a 12-well plate at 10,000 cells/well, and cultured for 72 hours under normal conditions. The wells were then washed with 1 ml of PBS, and 0.5 ml of DMEM-10% FBS was added. AzNAM was then added to a final concentration of 125 μM, with cells receiving no azide-modified sugar as controls. After 20 hours, cells were harvested with CellStripper (250 μl/well), washed with PBS, and subjected to flow analysis.
(In general: In flow cytometry, cells or beads pass a laser one at a time.)

The subject of assay [2] is HeLa cells. The assay can be described thus: Azide metabolic labeling of HeLa cells, detected with DBCO-FAM in a fluorescent plate reader. The format is cell-based. To be noted: AzNAM 25-125 μM for 20 hours, then DBCO-FAM 10 μM for 1 hour, 96-well plate reader (FIG. 1). As to the method:
Initially, cells are cultured in a suitable culture vessel such that their level of confluency at the time of addition of the azide-modified sugar AzNAM is not more than 80%.
In particular, HeLa cells were plated in 6-well plates (2.5×10^4 cells/well) and incubated for 48 hours in DMEM-10% FBS medium in a standard 5% CO2 atmosphere. Medium from each well was removed, and each well was washed with 2 ml of phosphate buffered saline (PBS), and fresh DMEM-FBS (1 ml) added. Subsequently, varying amounts of AzNAM (solubilized in DMSO) were added to the wells in small (10 μl) volumes to produce the desired final concentrations in the range 25-125 μM. After an additional 20 hours incubation, the medium in each well was removed, and the wells were washed with 2 ml of PBS, followed by addition of 1 ml of PBS. Then, a fluorescent bio-orthogonally azide-reactive reagent DBCO-FAM (Broadpharm) was directly added to each well to produce a final concentration of 10 μM.
Plates with added DBCO-FAM were protected from bright light and incubated for 1 hour at room temperature. Supernatants in each well were then removed, and each well was washed twice with 2 ml of PBS. […] After pelleting and washing in PBS, cells were resuspended in 150 μl of PBS and counted. Defined numbers in 50 μl volumes in a 96-well Blackwell plate (Corning) were assayed for fluorescence in a fluorescent plate reader (Tecan).

Turning to azido-N-acetylmannosamine [AzNAM], the “flow cytometry peak shift after reaction with DBCO-FAM” value in assay [1] was “marked and well-demarcated peak shifts were observed”. The “cell-associated fluorescence after reaction with DBCO-FAM” value in assay [2] was “cell-associated fluorescence increased as a function of the levels of AzNAM”.
